Reference: patent US8093210B2, “Treatment of sepsis with 5-ethyl-1-phenyl-2(1H)-pyridone” (Solanan, Inc., priority 2008, dated 2012)

Assays:
[1] = tested on: cecal ligation and puncture (CLP) model of sepsis; assay: Serum biomarkers and recoverable serum volume in cecal ligation and puncture (CLP) model of sepsis (Example 4); assay type: in vivo, Male Swiss-Webster mice; settings: for level of blood urea nitrogen (BUN) / recoverable blood-serum volume (average volume of serum) / serum level of alanine transaminase (ALT) / serum level of creatine kinase / serum level of glucose: 200 mg/kg ip 2 h before CLP, mean ± SEM
Description: Cecal ligation and puncture (CLP) is a more advanced model of septic shock than those involving lipopolysaccharide (LPS). In this model, as described by Wichterman K A, Baue A E, Chaudry I H (J Surg Res. 1980, 29; 189-201), mice are given intraperitoneal (IP) injections of the test compound or saline (control) prior to the beginning of the surgery. The mice are then anesthetized and a laparotomy is performed. The cecum is isolated and separated from the rest of the intestines by tying it at its base with a suturing thread. The cecum is then punctured with a needle. This facilitates influx of the colonic microflora into the abdominal cavity, which results in polymicrobial-induced peritonitis. Unlike the endotoxin model of septic shock, which is initiated by purified bacterial cell wall products, lipopolysaccharide (LPS), that simulates an acute septic shock, the CLP model more closely mimics clinically encountered signs of septic shock seen in humans as it is triggered by living bacteria.
Male Swiss-Webster mice, seven weeks old, were injected with 5-EPP (200 mg/kg) or saline (control) by intraperitoneal route two hours prior to the beginning of the surgery. They were anesthetized by a mixture of xylazine and ketamine, and a laparotomy was performed. The cecum was separated from the rest of the intestine, ligated with suture, and then punctured with an 18 gauge needle. Blood was collected by cardiac puncture 3, 6, or 12 hours after CLP and the serum isolated by centrifugation. Analysis of serum transaminases, blood urea nitrogen, creatine kinase, and glucose was carried out by a commercial company (Idexx Laboratories, West Sacramento, Calif.).
The results are reported as the mean±standard error of the mean with the number of animals in parentheses for each group. The statistical analysis for differences between saline control and 5-EPP pretreated mice was performed using […] (Prism™ for Windows 4.02, Graphpad Software, Inc., San Diego, Calif.). A value of P<0.05 was considered to be the minimum level of statistical significance. Reference values were determined by analyzing serum from mice injected with saline but not subjected to the CLP procedure.

[2] = tested on: LPS/D-galactosamine model of sepsis; assay: Serum alanine and aspartate transaminase in LPS/D-galactosamine model of sepsis (Example 5); assay type: in vivo, mice; settings: 200 mg/kg ip with LPS (10 μg/kg)/D-galactosamine (600 mg/kg)
Description: (§1) Mice were treated simultaneously with LPS (10 μg/kg) and D-galactosamine (600 mg/kg) (Galanos C, Freudenberg M A, Reutter W. Proc Natl Acad Sci USA. 1979, 76 (11):5939-43) and 5-EPP (200 mg/kg) by intraperitoneal route in a separate set of experiments. They were anesthetized with halothane and blood was collected at different times by cardiac puncture and centrifuged to separate serum. The serum levels of alanine transaminase (ALT) and aspartate transaminase (AST) were measured by a commercial diagnostic company (Idexx Laboratories). The serum levels of tumor necrosis factor-alpha (TNF-α), interleukin-6 (IL-6) and interleukin-12 (IL-12) were determined by commercially available mouse enzyme-linked immunosorbent assay (ELISA) kits (BD BioSciences, San Jose, Calif.).
(§2) The methodology utilized in Example 4 was used to measure and analyze the serum enzyme data for statistical significance. The serum levels of proinflammatory cytokines between the 5-EPP treated and saline control groups were analyzed for statistical significance by one-way ANOVA and a Tukey's multiple comparison test (Prism™ for Windows 4.02, Graphpad Software, Inc. San Diego, Calif.).

[3] = tested on: IL-12; assay: Serum IL-12 (ELISA) in LPS/D-galactosamine model of sepsis (Example 5); assay type: in vivo, mice; settings: 90 minutes after the treatment
Description: as §1, with “Proc Natl Acad Sci USA. 1979, 76 (11):5939-43) and 5-EPP (200 mg/kg) by intraperitoneal route in a separate set of experiments.” left out
as §2

[4] = tested on: TNF-α in THP-1 cells; assay: Secreted and cell-associated TNF-α in PMA-transformed THP-1 cells exposed to LPS (ELISA, Example 6); assay type: cell-based, human; settings: 3 hr, mean ± SEM, four replicates; for Secreted TNF-α: THP-1, 1 ng/mL LPS; for Cell-associated TNF-α: THP-1 lysate, 1 ng/mL LPS
Description: The effects of 5-EPP on secreted and cell associated TNF-α was examined in vitro using phorbol myristate acetate-transformed (PMA; Sigma, St. Louis, Mo.) human monocytic cells, THP-1 (ATCC, Manassas, Va.) according to the technique described by Grattendick et al. (International Immunopharmacology 2008, 8; 679-87). Briefly, cells were incubated for 3 hr on 96-well plates with culture media, 1 ng/mL LPS, or 1 ng/mL LPS 0-200 μg/mL 5-EPP before culture media were collected and analyzed for the presence of secreted TNF-α via a commercially available enzyme-linked immunosorbent assay (ELISA) kit (BD Biosciences, San Diego, Calif.). Separately, identically treated cells were lysed and their cell-associated TNF-α levels were determined via ELISA. All treatment groups were simultaneously compared using one-way ANOVA and Tukey's multiple comparison tests.
The values are expressed in pg/mL as mean±standard error of the mean for four replicates at all concentrations in each case.

[5] = tested on: THP-1 cells; assay: MTS cytotoxicity analysis on THP-1 cells; assay type: cell-based; settings: LPS 1 ng/mL and 5-EPP 0-500 μg/mL for 12 hours
Description: Cytotoxicity analysis was performed on THP-1 cells treated with various concentrations of 5-EPP using the MTS (3-(4,5-dimethylthiazol-2-yl)-5-(3-carboxymethoxyphenyl)-2-(4-sulfophenyl)-2H-tetrazolium, inner salt) assay (Promega, Madison, Wis.).

With `CCc1ccc(=O)n(-c2ccccc2)c1` [5-EPP, 5-ethyl-1-phenyl-2-(1H)-pyridone] the “level of blood urea nitrogen (BUN)” value ([1]; 3 Hours Post-CLP) was 20.8 ± 0.1 (11) mg/dL, the “recoverable blood-serum volume (average volume of serum)” value (from here on “recoverable blood-serum volume”) ([1]; 3 Hours Post-CLP) was 238.8 ± 20.11 (13) microliter and the “serum level of alanine transaminase (ALT)” value (shortened to “serum level … (ALT)”) ([1]; 3 Hours Post-CLP) was 159.1 ± 21.2 (11) U/L. The “serum level of creatine kinase” value ([1]; 3 Hours Post-CLP) was 2790.4 ± 370.8 (11) U/L, the “serum level of glucose” value ([1]; 3 Hours Post-CLP) was 303.9 ± 30.8 (11) mg/dL and the “level of blood urea nitrogen (BUN)” value ([1]; 6 Hours Post-CLP) was 19.4 ± 1.0 (12) mg/dL. For the same compound, the “recoverable blood-serum volume” value ([1]; 6 Hours Post-CLP) was 219.6 ± 16.70 (12) microliter, the “serum level … (ALT)” value ([1]; 6 Hours Post-CLP) was 128.9 ± 28.7 (12) U/L and the “serum level of creatine kinase” value ([1]; 6 Hours Post-CLP) was 1950.3 ± 244.1 (12) U/L. For the same compound, the “serum level of glucose” value ([1]; 6 Hours Post-CLP) was 116.7 ± 7.7 (12) mg/dL, the “level of blood urea nitrogen (BUN)” value ([1]; 12 Hours Post-CLP) was 23 ± 2.3 (12) mg/dL and the “recoverable blood-serum volume” value ([1]; 12 Hours Post-CLP) was 282.7 ± 27.70 (13) microliter. For the same compound, the “serum level … (ALT)” value ([1]; 12 Hours Post-CLP) was 148.2 ± 12.5 (12) U/L, the “serum level of creatine kinase” value ([1]; 12 Hours Post-CLP) was 778.5 ± 91.6 (12) U/L and the “serum level of glucose” value ([1]; 12 Hours Post-CLP) was 102.9 ± 5.9 (12) mg/dL. The “serum to blood ratio versus saline-control CLP mice” value ([1]; 200 mg/kg ip, at any time, data not shown) was “no significant difference”, the “serum level of alanine transaminase” value ([2]; After 3 Hours) was 109.4 ± 6.1 U/L and the “serum level of aspartate transaminase” value ([2]; After 3 Hours) was 131.3 ± 11.9 U/L. For the same compound, the “serum level of alanine transaminase” value ([2]; After 6 Hours) was 130.0 ± 8.9 U/L, the “serum level of aspartate transaminase” value ([2]; After 6 Hours) was 152.38 ± 14.4 U/L and the “serum level of alanine transaminase” value ([2]; After 12 Hours) was 109.5 ± 8.3 U/L. The “serum level of aspartate transaminase” value ([2]; After 12 Hours) was 173.38 ± 13.0 U/L, the “serum level of IL-12” value ([3]; 50 mg/kg) was 2,809 ± 325 pg/mL and the “serum level of IL-12” value ([3]; 100 mg/kg) was 1,371 ± 124 pg/mL. For the same compound, the “serum level of IL-12” value ([3]; 200 mg/kg) was 870 ± 99 pg/mL, the “Secreted TNF-α” value ([4]; 10 μg/mL 5-EPP) was 5382.8 ± 91.8 pg/mL and the “Secreted TNF-α” value ([4]; 33 μg/mL 5-EPP) was 3261.5 ± 94.1 pg/mL. For the same compound, the “Secreted TNF-α” value ([4]; 100 μg/mL 5-EPP) was 2073.7 ± 60.7 pg/mL, the “Secreted TNF-α” value ([4]; 200 μg/mL 5-EPP) was 1469.7 ± 58.9 pg/mL and the “Cell-associated TNF-α” value ([4]; 10 μg/mL 5-EPP) was 35.4 ± 3.1 pg/mL. The “Cell-associated TNF-α” value ([4]; 33 μg/mL 5-EPP) was 25.9 ± 1.6 pg/mL, the “Cell-associated TNF-α” value ([4]; 100 μg/mL 5-EPP) was 19.0 ± 0.9 pg/mL and the “Cell-associated TNF-α” value ([4]; 200 μg/mL 5-EPP) was 10.1 ± 1.3 pg/mL. For the same compound, the “concentration at which cytotoxicity appears (no cytotoxicity below)” value [5] was “at least 300 μg/mL”.
